Read-outs that look alike come from different tables or passages of the source.
Tests used:
BRAF = target: T1, BRAF (Homo sapiens, UniProt P15056); test: In vitro kinase assay (Z'-LYTE), BRAF; format: biochemical; details: read-out: % of inhibition of the kinase compared to the control
T1 construct: purchased Invitrogen
Method: (§1) 1) In Vitro Kinase Assays (Table 10 to Table 21)
(§2) The inhibitory activity of the compounds on several kinases including BRAF, EGFR (ErbB1), EGFR (ErbB1) T790M L858R, FGFR2, KDR (VEGFR2), PDGFRA (PDGFR alpha), SRC and other was evaluated by Invitrogen using the Z′-LYTE® technology. Briefly, the Z′-LYTE® biochemical assay employs a fluorescence-based, coupled-enzyme format and is based on the differential sensitivity of phosphorylated and non-phosphorylated peptides to proteolytic cleavage. The peptide substrate is labeled with two fluorophores—one at each end—that make up a FRET pair. A ratiometric method, which calculates the ratio (the Emission Ratio) of donor emission to acceptor emission after excitation of the donor fluorophore at 400 nm, is used to quantitate reaction progress.
(§3) The compounds are screened in 1% DMSO (final) in the well. For 10 point titrations, 3-fold serial dilutions are conducted from the starting concentration. All Peptide/Kinase Mixtures are diluted to a 2× working concentration in the appropriate Kinase Buffer. All ATP Solutions are diluted to a 4× working concentration in Kinase Buffer (50 mM HEPES pH 7.5, 0.01% BRIJ-35, 10 mM MgCl2, 1 mM EGTA). ATP Km apparent is previously determined using a Z′-LYTE® assay.
(§4) Each compound was incubated at a concentration of 100 nM (excepted to test the activity against ABL and ABL T315I for which the compounds were incubated at a concentration of 10 μM) and the tables 10 to 21 summarize the results obtained showing the inhibitory power of a compound.

EGFR (ErbB1) = target: T2, EGFR (ErbB1) (Homo sapiens, UniProt P00533); test: In vitro kinase assay (Z'-LYTE), EGFR (ErbB1); format: biochemical; details: read-out: % of inhibition of the kinase compared to the control
T2 construct: purchased Invitrogen
T2 sequence (P00533 25-1210): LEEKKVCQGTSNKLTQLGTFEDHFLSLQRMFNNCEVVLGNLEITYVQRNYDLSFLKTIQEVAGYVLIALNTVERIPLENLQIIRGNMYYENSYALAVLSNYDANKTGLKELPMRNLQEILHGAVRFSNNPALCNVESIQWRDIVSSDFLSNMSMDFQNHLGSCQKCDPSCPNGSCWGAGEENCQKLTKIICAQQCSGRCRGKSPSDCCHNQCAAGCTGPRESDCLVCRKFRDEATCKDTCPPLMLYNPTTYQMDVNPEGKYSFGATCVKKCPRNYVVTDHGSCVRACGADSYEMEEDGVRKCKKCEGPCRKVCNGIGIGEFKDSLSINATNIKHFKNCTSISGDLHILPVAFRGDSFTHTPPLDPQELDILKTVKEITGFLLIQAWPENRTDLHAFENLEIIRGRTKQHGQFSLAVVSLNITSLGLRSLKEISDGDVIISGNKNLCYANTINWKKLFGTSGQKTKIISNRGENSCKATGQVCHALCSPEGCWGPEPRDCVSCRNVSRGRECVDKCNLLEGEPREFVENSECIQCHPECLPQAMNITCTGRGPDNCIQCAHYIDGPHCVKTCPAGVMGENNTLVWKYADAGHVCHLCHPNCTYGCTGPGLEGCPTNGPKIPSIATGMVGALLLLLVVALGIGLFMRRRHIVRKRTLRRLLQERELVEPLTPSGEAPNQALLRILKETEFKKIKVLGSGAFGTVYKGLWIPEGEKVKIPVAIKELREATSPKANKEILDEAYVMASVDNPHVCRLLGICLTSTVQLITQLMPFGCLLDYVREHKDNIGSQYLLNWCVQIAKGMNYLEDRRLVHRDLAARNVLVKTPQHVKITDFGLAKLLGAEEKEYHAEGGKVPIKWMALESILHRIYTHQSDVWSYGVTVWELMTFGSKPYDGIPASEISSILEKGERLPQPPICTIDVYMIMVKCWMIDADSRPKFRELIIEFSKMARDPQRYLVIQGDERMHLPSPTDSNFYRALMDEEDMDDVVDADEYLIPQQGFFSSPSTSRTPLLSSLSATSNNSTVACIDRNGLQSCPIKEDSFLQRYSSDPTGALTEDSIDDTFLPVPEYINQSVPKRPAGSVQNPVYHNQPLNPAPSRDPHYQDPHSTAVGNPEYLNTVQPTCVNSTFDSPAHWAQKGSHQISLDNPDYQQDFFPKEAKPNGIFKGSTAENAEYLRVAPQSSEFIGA
Method: as §1, §2, §3, §4

FGFR2 = target: T3, FGFR2 (Homo sapiens, UniProt P21802); test: In vitro kinase assay (Z'-LYTE), FGFR2; format: biochemical; details: read-out: % of inhibition of the kinase compared to the control
T3 construct: purchased Invitrogen
Method: as §1, §2, §3, §4

KDR (VEGFR2) = target: T4, KDR (VEGFR2) (Homo sapiens, UniProt P35968); test: In vitro kinase assay (Z'-LYTE), KDR (VEGFR2); format: biochemical; details: read-out: % of inhibition of the kinase compared to the control
T4 construct: purchased Invitrogen
T4 sequence (P35968 20-1356): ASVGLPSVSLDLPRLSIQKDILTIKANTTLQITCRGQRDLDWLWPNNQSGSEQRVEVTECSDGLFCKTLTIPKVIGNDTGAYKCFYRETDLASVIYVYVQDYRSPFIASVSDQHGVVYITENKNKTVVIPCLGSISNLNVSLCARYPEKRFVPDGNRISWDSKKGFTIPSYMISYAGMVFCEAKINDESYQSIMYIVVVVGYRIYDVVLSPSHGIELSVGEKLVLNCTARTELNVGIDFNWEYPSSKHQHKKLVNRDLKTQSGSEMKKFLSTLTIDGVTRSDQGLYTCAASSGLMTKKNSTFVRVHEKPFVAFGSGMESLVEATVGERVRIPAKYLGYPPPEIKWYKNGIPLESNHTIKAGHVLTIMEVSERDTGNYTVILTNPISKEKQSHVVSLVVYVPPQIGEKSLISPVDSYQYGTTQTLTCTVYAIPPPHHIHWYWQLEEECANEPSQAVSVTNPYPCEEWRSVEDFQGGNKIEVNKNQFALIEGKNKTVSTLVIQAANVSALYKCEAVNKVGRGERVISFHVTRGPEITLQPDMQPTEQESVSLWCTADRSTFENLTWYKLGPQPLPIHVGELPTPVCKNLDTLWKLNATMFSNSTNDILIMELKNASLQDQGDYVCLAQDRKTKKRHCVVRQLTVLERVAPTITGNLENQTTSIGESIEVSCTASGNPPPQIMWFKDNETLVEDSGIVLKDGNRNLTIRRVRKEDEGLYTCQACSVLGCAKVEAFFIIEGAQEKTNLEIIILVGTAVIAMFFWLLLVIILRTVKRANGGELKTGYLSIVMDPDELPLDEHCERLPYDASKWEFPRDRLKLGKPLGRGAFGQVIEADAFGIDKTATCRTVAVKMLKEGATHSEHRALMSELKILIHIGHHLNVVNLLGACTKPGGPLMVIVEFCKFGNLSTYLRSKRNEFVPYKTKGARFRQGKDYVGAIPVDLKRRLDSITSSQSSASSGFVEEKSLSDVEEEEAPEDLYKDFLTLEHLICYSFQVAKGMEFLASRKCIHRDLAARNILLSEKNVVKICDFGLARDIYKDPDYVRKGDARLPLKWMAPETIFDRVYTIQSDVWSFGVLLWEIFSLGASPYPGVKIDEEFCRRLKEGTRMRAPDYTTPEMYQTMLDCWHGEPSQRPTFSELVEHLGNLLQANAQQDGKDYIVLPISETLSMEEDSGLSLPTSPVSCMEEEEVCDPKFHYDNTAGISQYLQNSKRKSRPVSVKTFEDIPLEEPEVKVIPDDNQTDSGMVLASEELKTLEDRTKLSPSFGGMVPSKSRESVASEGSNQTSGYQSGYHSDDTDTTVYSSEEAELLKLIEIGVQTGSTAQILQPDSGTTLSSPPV
Method: as §1, §2, §3, §4

A549 cell line = test: In vitro cell proliferation assay (MTT), A549; format: cell-based; details: Homo sapiens, read-out: EC50, anti-proliferative activity
Method: (§5) 2) In Vitro Cell Proliferation Assays (Table 22 to Table 35)
(§6) Cancer cell lines (5×10^3 cells per well) or HUVEC (1×10^4 cells per well) or HRMEC (1×10^4 cells per well) were distributed in 96-well plates and incubating in duplicate with escalating concentrations (10 nM to 3 μM) of compounds for 72 hr. Cell proliferation was measured using MTT (3[4,5-dimethylthiazol-2-yl]-2,5-diphenyltetrazolium bromide).

HepG2 cell line = test: In vitro cell proliferation assay (MTT), HepG2; format: cell-based; details: Homo sapiens, read-out: EC50, anti-proliferative activity
Method: as §5, §6

HUVEC = test: In vitro cell proliferation assay (MTT), HUVEC; format: cell-based; details: Homo sapiens, read-out: EC50, anti-proliferative activity
Method: as §5, §6

MDA-MB-231 cell line = test: In vitro cell proliferation assay (MTT), MDA-MB-231; format: cell-based; details: Homo sapiens, read-out: EC50, anti-proliferative activity
Method: as §5, §6

HeLa cell line = test: In vitro cell proliferation assay (MTT), HeLa; format: cell-based; details: Homo sapiens, read-out: EC50, anti-proliferative activity
Method: as §5, §6

PDGFRA (PDGFR alpha) = target: T5, PDGFRA (PDGFR alpha) (Homo sapiens, UniProt P16234); test: In vitro kinase assay (Z'-LYTE), PDGFRA; format: biochemical; details: read-out: % of inhibition of the kinase compared to the control
T5 construct: purchased Invitrogen
T5 sequence (P16234 24-1089): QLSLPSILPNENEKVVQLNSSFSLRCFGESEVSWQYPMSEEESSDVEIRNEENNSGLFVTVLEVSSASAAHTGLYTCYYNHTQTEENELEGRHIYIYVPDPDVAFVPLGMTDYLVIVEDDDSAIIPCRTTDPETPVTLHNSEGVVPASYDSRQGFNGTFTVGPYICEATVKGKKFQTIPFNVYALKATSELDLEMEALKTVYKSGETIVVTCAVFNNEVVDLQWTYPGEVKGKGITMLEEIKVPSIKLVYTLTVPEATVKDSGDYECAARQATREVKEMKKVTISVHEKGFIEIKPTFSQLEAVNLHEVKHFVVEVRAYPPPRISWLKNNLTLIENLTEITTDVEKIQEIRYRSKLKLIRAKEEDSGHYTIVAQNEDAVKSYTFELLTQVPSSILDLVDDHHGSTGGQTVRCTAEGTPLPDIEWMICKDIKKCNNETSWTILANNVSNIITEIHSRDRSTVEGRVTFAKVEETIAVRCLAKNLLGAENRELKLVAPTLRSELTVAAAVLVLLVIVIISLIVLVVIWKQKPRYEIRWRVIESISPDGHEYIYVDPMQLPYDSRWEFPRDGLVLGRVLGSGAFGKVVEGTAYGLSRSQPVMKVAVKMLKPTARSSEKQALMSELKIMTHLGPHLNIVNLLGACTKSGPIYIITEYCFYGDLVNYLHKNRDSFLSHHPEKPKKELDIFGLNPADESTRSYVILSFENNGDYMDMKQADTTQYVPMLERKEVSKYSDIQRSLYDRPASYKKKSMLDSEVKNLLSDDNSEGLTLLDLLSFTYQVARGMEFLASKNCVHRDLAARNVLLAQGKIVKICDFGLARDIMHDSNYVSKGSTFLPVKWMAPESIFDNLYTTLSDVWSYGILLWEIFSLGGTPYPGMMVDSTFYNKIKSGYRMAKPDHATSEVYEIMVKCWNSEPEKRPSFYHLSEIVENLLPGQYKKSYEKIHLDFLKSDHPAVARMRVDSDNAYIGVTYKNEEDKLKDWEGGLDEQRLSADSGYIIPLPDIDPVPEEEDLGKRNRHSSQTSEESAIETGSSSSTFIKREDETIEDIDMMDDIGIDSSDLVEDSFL
Method: as §1, §2, §3, §4

SRC = target: T6, SRC (Homo sapiens, UniProt P12931); test: In vitro kinase assay (Z'-LYTE), SRC; format: biochemical; details: read-out: % of inhibition of the kinase compared to the control
T6 construct: purchased Invitrogen
T6 sequence (P12931 whole entry): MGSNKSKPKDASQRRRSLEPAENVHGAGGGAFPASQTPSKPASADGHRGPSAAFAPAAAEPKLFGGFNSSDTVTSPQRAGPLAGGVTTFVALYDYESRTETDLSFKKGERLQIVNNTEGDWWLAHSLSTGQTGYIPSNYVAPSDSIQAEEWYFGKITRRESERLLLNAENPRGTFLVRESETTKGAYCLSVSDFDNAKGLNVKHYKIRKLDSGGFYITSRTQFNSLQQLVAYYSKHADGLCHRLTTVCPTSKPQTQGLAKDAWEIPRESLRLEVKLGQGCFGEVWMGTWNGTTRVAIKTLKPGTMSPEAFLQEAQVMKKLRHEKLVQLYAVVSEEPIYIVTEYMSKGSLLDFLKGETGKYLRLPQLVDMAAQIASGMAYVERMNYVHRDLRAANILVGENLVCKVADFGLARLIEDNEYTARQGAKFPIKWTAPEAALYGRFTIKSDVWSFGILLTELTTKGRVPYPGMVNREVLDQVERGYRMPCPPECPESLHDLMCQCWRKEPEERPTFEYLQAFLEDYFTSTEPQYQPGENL
Method: as §1, §2, §3, §4

HuCCT1 cell line = test: In vitro cell proliferation assay (MTT), HuCCT1; format: cell-based; details: Homo sapiens, HuCCT-1; HuCCT1, 72 hr, MTT; read-out: EC50, anti-proliferative activity
Method: as §5, §6

EGFR (ErbB1) T790M L858R = target: T7, EGFR (ErbB1) T790M L858R (Homo sapiens, UniProt P00533, L858R/T790M); test: In vitro kinase assay (Z'-LYTE), EGFR (ErbB1) T790M L858R; format: biochemical; details: read-out: % of inhibition of the kinase compared to the control
T7 construct: purchased Invitrogen
Method: as §1, §2, §3, §4

T1 sequence (P15056 whole entry): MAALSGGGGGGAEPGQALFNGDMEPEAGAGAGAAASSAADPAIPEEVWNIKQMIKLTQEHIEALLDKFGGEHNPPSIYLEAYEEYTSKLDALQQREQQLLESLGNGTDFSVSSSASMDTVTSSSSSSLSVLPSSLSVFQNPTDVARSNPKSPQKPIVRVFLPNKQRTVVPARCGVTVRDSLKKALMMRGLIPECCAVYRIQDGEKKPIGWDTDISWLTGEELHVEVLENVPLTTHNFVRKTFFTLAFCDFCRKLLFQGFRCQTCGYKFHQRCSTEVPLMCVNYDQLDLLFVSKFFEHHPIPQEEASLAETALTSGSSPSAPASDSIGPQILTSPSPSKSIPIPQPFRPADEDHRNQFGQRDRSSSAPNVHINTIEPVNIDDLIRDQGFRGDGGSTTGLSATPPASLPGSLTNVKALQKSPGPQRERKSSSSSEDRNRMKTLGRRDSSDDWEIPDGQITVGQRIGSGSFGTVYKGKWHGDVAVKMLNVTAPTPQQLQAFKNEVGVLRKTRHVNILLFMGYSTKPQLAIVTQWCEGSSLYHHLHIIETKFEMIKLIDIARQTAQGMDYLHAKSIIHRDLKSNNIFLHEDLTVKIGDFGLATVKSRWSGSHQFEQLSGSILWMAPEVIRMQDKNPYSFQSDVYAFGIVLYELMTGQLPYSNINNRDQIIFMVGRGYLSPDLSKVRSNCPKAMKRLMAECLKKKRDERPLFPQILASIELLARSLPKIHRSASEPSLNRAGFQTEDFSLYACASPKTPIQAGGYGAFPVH

inhibition at 0.1 µM (BRAF) [%] | inhibition at 0.1 µM (EGFR (ErbB1)) [%] | inhibition at 0.1 µM (FGFR2) [%] | inhibition at 0.1 µM (KDR (VEGFR2)) [%] | EC50 (A549 cell line; A549, 72 h) [nM] | EC50 (HepG2 cell line; HepG2, 72 h) [nM] | EC50 (MDA-MB-231 cell line; MDA-MB-231, 72 h) [nM] | EC50 (HeLa cell line; 72 h) [nM] | inhibition at 0.1 µM (PDGFRA (PDGFR alpha)) [%] | inhibition at 0.1 µM (SRC) [%] | EC50 (A549 cell line; A549, 72 hr, MTT) [nM] | EC50 (HepG2 cell line; HepG2, 72 hr, MTT) [nM] | EC50 (MDA-MB-231 cell line; MDA-MB-231, 72 hr, MTT) [nM] | EC50 (HeLa cell line; 72 hr, MTT) [nM] | inhibition at 0.1 µM (EGFR (ErbB1) T790M L858R) [%] | SMILES | EC50 (HUVEC; 72 h) [nM] | EC50 (HUVEC; 72 hr, MTT) [nM] | EC50 (HuCCT1 cell line) [nM]
< 50 | < 50 | < 50 | < 50 |  |  |  |  | < 50 | < 50 | ≥ 1000 | ≥ 1000 | ≥ 1000 | ≥ 1000 |  | CC(=O)c1cc2cc(NC(=O)c3cccc(CNC(=S)c4cccc(C(F)(F)F)c4)c3)cnc2[nH]1 [OR1012, N-[3-(2-Acetyl-1H-pyrrolo[2,3-b]pyridin-5-ylcarbamoyl)-benzyl]-3-trifluoromethyl-thiobenzamide] |  | ≥ 1000 | 
 |  |  |  |  |  |  |  |  |  | ≥ 1000 | ≥ 1000 | ≥ 1000 | ≥ 1000 |  | COc1ccccc1C(=O)Nc1ccc(F)c(CNc2cnc3[nH]c(C(C)=O)cc3c2)c1 [OR1063, N-{3-[(2-Acetyl-1H-pyrrolo[2,3-b]pyridin-5-ylamino)-methyl]-4-fluoro-phenyl}-2-methoxy-benzamide] |  | ≥ 1000 | 
< 50 | < 50 | < 50 | < 50 |  | 100 to 1000 |  |  | < 50 | < 50 | ≥ 1000 |  | ≥ 1000 | ≥ 1000 |  | CC(=O)c1cc2cc(NCc3cc(NC(=S)Nc4cccc(C(F)(F)F)c4)ccc3C)cnc2[nH]1 [OR1015, 1-{3-[(2-Acetyl-1H-pyrrolo[2,3-b]pyridin-5-ylamino)-methyl]-4-methyl-phenyl}-3-(3-trifluoromethyl-phenyl)-thiourea] | 100 to 1000 |  | 

The remaining lines, values behind:

SMILES | inhibition at 0.1 µM (BRAF) [%] | inhibition at 0.1 µM (EGFR (ErbB1)) [%] | inhibition at 0.1 µM (FGFR2) [%] | inhibition at 0.1 µM (KDR (VEGFR2)) [%] | EC50 (A549 cell line; A549, 72 h) [nM] | EC50 (HepG2 cell line; HepG2, 72 h) [nM] | EC50 (MDA-MB-231 cell line; MDA-MB-231, 72 h) [nM] | EC50 (HeLa cell line; 72 h) [nM] | inhibition at 0.1 µM (PDGFRA (PDGFR alpha)) [%] | inhibition at 0.1 µM (SRC) [%] | EC50 (A549 cell line; A549, 72 hr, MTT) [nM] | EC50 (HepG2 cell line; HepG2, 72 hr, MTT) [nM] | EC50 (MDA-MB-231 cell line; MDA-MB-231, 72 hr, MTT) [nM] | EC50 (HeLa cell line; 72 hr, MTT) [nM] | inhibition at 0.1 µM (EGFR (ErbB1) T790M L858R) [%] | EC50 (HUVEC; 72 h) [nM] | EC50 (HUVEC; 72 hr, MTT) [nM] | EC50 (HuCCT1 cell line) [nM]
CC(=O)c1cc2cc(NCc3cccc(NC(=O)c4ccc(CN5CCN(C)CC5)c(C(F)(F)F)c4)c3)cnc2[nH]1 [OR0926, N-{3-[(2-Acetyl-1H-pyrrolo[2,3-b]pyridin-5-ylamino)-methyl]-phenyl}-4-(4-methyl-piperazin-1-ylmethyl)-3-trifluoromethyl-benzamide] | < 50 | ≥ 50 | ≥ 50 | ≥ 50 | 100 to 1000 | ≤ 100 | ≤ 100 | 100 to 1000 |  |  |  |  |  |  |  | 100 to 1000 |  | 
Cc1nc(Nc2ncc(C(=O)Nc3c(C)cccc3Cl)s2)cc(N2CCN(CCO)CC2)n1 [Dasatinib, reference compound] |  |  |  |  |  |  |  |  |  |  |  | ≥ 1000 |  |  |  |  |  | ≥ 1000
CC(=O)c1cc2cc(NCc3cc(NC(=O)c4cc(-n5cnc(C)c5)cc(C(F)(F)F)c4)ccc3C)cnc2[nH]1 [OR0719, N-{3-[(2-Acetyl-1H-pyrrolo[2,3-b]pyridin-5-ylamino)-methyl]-4-methyl-phenyl}-3-(4-methyl-imidazol-1-yl)-5-trifluoromethyl-benzamide] | ≥ 50 | < 50 | < 50 | < 50 |  |  |  |  | < 50 | ≥ 50 |  |  |  |  | < 50 |  |  | 
CC(=O)c1cc2cc(NCc3cc(NC(=O)c4ccc(CN5CCN(C)CC5)c(F)c4)ccc3C)cnc2[nH]1 [OR0885, N-{3-[(2-Acetyl-1H-pyrrolo[2,3-b]pyridin-5-ylamino)-methyl]-4-methyl-phenyl}-3-fluoro-4-(4-methyl-piperazin-1-ylmethyl)-benzamide] | ≥ 50 | ≥ 50 | ≥ 50 | ≥ 50 |  | 100 to 1000 | 100 to 1000 |  |  |  | ≥ 1000 |  |  | ≥ 1000 |  |  | ≥ 1000 | 

From patent US9403823B2, “Protein kinase inhibitors” (ORIBASE PHARMA, priority 2012, dated 2016)
